Data taken from US20240360150A1, “ISOINDOLINONE COMPOUNDS AND USES THEREOF” (HANGZHOU GLUBIO PHARMACEUTICAL CO. LTD., priority 2021, published 2024).
pIC50: −log10 of the molar value. Like-named read-outs stand apart in the source and are kept apart here. Each block holds one molecule with its values, some of them ahead of it.

How the values were obtained:
HiBiT-tagged SALL4 = biological target: T1, HiBiT-tagged SALL4 (Homo sapiens, UniProt Q96SW2+Q9UJQ4); assay: Degradation assay for SALL4 (HiBiT tag bioluminescence assay); format: cell-based
T1 construct: expressed in transfected cells; host or cells: HT-1080 (ATCC CCL-121), lentiviral transduction
Protocol: (§1) About 10,000 cells in complete DMEM cell culture media were seeded per well. Assay plates were incubated at 37° C. with 5% CO2 for hours, followed by the assessment of IKZF1 or SALL4 degradation using the Nano-Glo HiBiT Lytic Detection Reagent (Cat #N3050, Promega) according to the manufacturer's instruction. Luminescence was then measured with an EnVision plate reader (PerkinElmer) or a PHERAstar plate reader (BMG Labtech). All IKZF1 or SALL4 degradation curves were processed using Collaborative Drug Discovery Vault softwares. IKZF1 or SALL4 levels in compound-treated wells were normalized to that of DMSO control and expressed as Percent of Control (PoC, y). A four Parameter Logistic Model was used to determine the compound's EC50 and DC50, using the following equation:
(§2) A=Ymin (lowest IKZF1 or SALL4 level normalized to DMSO control in response to compound treatment, as determined by curve fit)
(§3) B=Ymax (IKZF1 or SALL4 level in DMSO control)
(§4) C=EC50 half degradation concentration
(§5) EC50=the concentration of compound when y=(Ymax−Ymin)/2
(§6) DC50=test sample concentration when IKZF1 or SALL4 readings y=50% DMSO-treated samples
(§7) y=IKZF1 or SALL4 readings after test sample treatment (normalized to IKZF1 or SALL4 readings in DMSO-treated samples)
(§8) Dmax represents the maximum percentage of IKZF1 or SALL4 protein degradation induced by compound treatment.

MM.1S cells = assay: MM.1S cell proliferation assay (CellTiter-Glo); format: cell-based; settings: for pIC50: Homo sapiens, MM1.S, antiproliferative, 120 hours incubation, CellTiter-Glo, read-out: MM.1S: IC50; for Ymin: lowest cell viability read normalized to DMSO control, MM.1S, 120 hours
Protocol: About 3,000 cells in 50 μL of culture medium were seeded per well. Assay plates were incubated at 37° C. with 5% CO2 for 120 hours. After that, 20 μL of the CellTiter-Glo Luminescent Cell Viability Assay Reagent (Cat #G7573, Promega) was added to each well and incubated at room temperature for 30 minutes. Luminescence was then measured with an EnVision plate reader (PerkinElmer) or a PHERAstar plate reader (BMG LABTECH). All percentage of cell growth inhibition curves were processed using Collaborative Drug Discovery Vault softwares. Cell viability reads in compound-treated wells were normalized to that of DMSO control and expressed as Percent of Control (PoC, y). A four Parameter Logistic Model was used to determine the compound's EC50 and DC50, using the following equation:
[formula] • wherein, • A=Ymin (lowest cell viability read normalized to DMSO control in response to compound treatment, as determined by curve fit) • B=Ymax (the maximum value, cell viability read in DMSO control) • C=EC50 half inhibitory concentration • D=Hill Slope • x=compound concentration
as §5
y=cell viability read normalized to DMSO control

HiBiT-tagged IKZF1 [1] = biological target: T2, HiBiT-tagged IKZF1 (Homo sapiens, UniProt Q13422+Q96SW2); assay: Degradation assay for IKZF1 (HiBiT tag bioluminescence assay); format: cell-based
T2 construct: expressed in transfected cells; host or cells: HT-1080 (ATCC CCL-121), lentiviral transduction
Protocol: as §1, §2, §3, §4, §5, §6, §7, §8

[2] = Pharmacokinetic study in mice; format: in vivo; settings: male CD1 mice
Protocol: Objective: The objective of this study was to determine the pharmacokinetics of test compound following a single intravenous (IV) bolus dose and a single oral (PO) administration in male CD1 mice by quantifying the concentrations of the test compound at different times in plasma using LC/MS/MS method.
Materials: Male CD1 mouse (20-30 g, 6-8 weeks, Zhejiang Vital River Laboratory Animal Technology Co., Ltd.).
The clear solution of the test article was injected into CD1 mice via tail vein (free access to food and water), or orally administrated into CD1 mice (free access to food and water). After administration, blood was collected from the dorsal metatarsal vein at 5 min (0.0833 h, IV only), 15 min (0.25 h), 30 min (0.5 h), 60 min (1 h), 2 h, 4 h, 6 h, 8 h and 24 h. Blood samples were placed in an anticoagulant tube with EDTA-K2 at 4° C., mixed adequately and centrifuged at 4000 g for 5 min to get the plasma. The plasma concentration was quantified by LC-MS/MS. The PK parameters were calculated using non-compartmental model by Phoenix WinNonlin 6.1 (Linear/log trapezoidal).

HiBiT-tagged IKZF1 [3] = biological target: T2, HiBiT-tagged IKZF1; assay: IKZF1 protein degradation kinetics (IKZF1 HiBiT degradation assay, incubation 1, 2 or 4 hours); format: cell-based
Text: The following is a general method for testing compounds-induced degradation of HiBiT-tagged IKZF1 or SALL4 overexpressed in a human cell line, for example, the HT-1080 cell line (American Type Culture Collection (ATCC), catalog number CCL-121). The HT-1080 IKZF1 (or SALL4) HiBiT reporter cell line was engineered via lentiviral transduction to stably overexpress GSPT1 (Δ1-138)/G575N and HiBiT-tagged IKZF1 or SALL4. The HT-1080 IKZF1 (or SALL4) HiBiT reporter cell line was maintained in DMEM media supplemented with 10% fetal bovine serum, IX sodium pyruvate, 1× non-essential amino acids, IX glutamine, 100 U/ml penicillin, and 100 μg/mL streptomycin. The HT-1080 IKZF1 (or SALL4) HiBiT reporter cells were seeded into 384-well plates (Cat #3764, Corning) pre-spotted with DMSO or test compounds. Increasing concentrations of test compounds (ranging from 15.81 pM to 500 nM or from 0.3162 nM to 10 μM at a 3.162-fold increment) or DMSO were dispensed into an empty 384-well plate using an Echo 650 Acoustic Liquid Handler (Beckman Coulter). About 10,000 cells in complete DMEM cell culture media were seeded per well. Assay plates were incubated at 37° C. with 5% CO2 for hours, followed by the assessment of IKZF1 or SALL4 degradation using the Nano-Glo HiBiT Lytic Detection Reagent (Cat #N3050, Promega) according to the manufacturer's instruction. Luminescence was then measured with an EnVision plate reader (PerkinElmer) or a PHERAstar plate reader (BMG Labtech). All IKZF1 or SALL4 degradation curves were processed using Collaborative Drug Discovery Vault softwares. IKZF1 or SALL4 levels in compound-treated wells were normalized to that of DMSO control and expressed as Percent of Control (PoC, y). A four Parameter Logistic Model was used to determine the compound's EC50 and DC50, using the following equation: […]
The IKZF1 protein degradation kinetics of compounds 9-B and 9-A was evaluated using the IKZF1 HiBiT degradation assay as described above except that the incubation time was changed to 1, 2 or 4 hours.

[4] = HT-1080, Table 1; HT-1080 SALL4 HiBiT reporter cells; maximum percentage of protein degradation
[5] = Table 1; HT-1080 SALL4 HiBiT reporter cells; performed once with technical duplicates, some compounds tested on different days; read-out: HiBiT SALL4: DC50
[6] = mouse, Table 4, PO (10 mg/kg), plasma
[7] = HT-1080, Table 1; HT-1080 IKZF1 HiBiT reporter cells; maximum percentage of protein degradation
[8] = Table 1; HT-1080 IKZF1 HiBiT reporter cells; performed once with technical duplicates, some compounds tested on different days; read-out: HiBiT IKZF1: DC50
[9] = mouse, Table 5, PO (10 mg/kg), plasma
[10] = after 1 hour of compound incubation

T2 sequence (Q13422 whole entry): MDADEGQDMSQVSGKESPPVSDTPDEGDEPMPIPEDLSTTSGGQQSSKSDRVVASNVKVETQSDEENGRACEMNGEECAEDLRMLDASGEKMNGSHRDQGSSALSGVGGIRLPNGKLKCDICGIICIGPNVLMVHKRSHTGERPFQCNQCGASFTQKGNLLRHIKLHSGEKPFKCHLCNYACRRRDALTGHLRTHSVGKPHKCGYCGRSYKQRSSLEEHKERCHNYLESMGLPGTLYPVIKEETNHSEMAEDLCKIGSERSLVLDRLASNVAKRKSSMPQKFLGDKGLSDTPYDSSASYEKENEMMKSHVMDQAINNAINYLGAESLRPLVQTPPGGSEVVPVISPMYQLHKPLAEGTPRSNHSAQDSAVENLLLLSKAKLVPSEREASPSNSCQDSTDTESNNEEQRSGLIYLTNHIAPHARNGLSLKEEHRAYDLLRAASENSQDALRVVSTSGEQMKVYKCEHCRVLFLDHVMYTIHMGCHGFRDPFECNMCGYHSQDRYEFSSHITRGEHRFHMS
T2 sequence (Q96SW2 whole entry): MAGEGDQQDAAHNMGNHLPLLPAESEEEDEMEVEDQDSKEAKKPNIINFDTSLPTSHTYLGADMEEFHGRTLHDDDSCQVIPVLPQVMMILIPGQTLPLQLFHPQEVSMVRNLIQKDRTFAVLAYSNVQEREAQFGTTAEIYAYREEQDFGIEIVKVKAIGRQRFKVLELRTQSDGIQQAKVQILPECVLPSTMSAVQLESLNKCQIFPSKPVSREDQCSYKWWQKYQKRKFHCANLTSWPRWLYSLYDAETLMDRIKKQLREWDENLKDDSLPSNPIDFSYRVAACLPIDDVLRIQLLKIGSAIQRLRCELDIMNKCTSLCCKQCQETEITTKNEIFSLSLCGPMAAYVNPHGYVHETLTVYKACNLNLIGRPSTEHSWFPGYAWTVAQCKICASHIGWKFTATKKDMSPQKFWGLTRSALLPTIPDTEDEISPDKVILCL
T2 sequence (Q16531 whole entry partner): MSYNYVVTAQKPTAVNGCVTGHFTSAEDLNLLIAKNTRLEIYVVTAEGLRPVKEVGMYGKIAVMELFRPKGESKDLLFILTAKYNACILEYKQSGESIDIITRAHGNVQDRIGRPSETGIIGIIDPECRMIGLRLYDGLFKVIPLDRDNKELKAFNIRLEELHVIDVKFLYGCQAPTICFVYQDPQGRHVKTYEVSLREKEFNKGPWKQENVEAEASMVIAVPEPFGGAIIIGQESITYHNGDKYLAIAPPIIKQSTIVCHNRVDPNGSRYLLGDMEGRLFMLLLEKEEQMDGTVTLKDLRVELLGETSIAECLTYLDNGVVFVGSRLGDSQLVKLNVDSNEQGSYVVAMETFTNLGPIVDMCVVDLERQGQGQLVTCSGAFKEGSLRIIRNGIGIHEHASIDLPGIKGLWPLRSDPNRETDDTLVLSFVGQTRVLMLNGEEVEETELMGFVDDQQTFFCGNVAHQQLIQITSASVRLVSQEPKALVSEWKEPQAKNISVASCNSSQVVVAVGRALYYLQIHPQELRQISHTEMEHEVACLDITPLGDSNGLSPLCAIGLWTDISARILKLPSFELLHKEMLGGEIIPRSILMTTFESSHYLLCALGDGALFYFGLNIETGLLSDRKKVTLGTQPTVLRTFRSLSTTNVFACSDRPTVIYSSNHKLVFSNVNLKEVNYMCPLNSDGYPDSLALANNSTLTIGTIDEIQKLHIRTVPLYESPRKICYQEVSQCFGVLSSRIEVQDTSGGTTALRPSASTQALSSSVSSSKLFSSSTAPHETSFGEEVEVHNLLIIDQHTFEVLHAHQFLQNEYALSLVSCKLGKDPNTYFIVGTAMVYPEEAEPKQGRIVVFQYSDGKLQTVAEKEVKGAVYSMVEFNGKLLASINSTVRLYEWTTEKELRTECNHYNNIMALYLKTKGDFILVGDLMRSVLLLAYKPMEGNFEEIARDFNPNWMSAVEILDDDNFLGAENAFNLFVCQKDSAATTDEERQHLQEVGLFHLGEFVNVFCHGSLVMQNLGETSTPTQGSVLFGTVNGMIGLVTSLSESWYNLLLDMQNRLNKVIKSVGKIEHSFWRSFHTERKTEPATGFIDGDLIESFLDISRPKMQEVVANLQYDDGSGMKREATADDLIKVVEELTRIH
T1 sequence (Q9UJQ4 whole entry): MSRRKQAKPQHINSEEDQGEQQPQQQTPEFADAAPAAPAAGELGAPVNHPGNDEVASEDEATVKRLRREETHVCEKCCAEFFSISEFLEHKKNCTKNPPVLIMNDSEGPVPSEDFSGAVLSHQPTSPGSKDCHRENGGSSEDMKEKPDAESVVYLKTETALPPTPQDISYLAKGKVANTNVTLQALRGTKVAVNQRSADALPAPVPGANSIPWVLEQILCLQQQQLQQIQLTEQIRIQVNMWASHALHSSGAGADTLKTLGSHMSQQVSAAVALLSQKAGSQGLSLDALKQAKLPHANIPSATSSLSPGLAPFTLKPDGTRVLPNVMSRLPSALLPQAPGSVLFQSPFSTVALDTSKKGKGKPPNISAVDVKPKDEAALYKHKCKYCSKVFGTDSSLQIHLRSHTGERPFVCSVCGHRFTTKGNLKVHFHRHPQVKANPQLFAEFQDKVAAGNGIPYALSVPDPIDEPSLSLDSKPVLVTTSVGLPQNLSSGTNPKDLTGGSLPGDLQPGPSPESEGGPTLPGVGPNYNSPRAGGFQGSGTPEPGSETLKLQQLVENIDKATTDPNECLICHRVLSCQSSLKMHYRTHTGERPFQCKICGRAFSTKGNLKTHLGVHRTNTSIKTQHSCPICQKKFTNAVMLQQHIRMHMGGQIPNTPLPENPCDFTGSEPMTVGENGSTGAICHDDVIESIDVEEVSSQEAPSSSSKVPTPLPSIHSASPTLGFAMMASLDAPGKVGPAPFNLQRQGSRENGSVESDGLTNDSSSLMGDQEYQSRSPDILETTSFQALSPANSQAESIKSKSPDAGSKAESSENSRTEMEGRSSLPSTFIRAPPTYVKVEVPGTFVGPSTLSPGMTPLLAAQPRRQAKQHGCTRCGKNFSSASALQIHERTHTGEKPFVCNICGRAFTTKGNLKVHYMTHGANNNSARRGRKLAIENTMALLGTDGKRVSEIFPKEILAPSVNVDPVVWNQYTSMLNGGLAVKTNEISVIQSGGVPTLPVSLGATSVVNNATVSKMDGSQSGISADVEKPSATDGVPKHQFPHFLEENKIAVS
T1 sequence (Q96SW2 whole entry): as the sequence (Q96SW2 whole entry) above
T1 sequence (Q16531 whole entry partner): as the sequence (Q16531 whole entry partner) above

SMILES: N#Cc1ccc(N2CCN(Cc3ccc(COc4cccc5c4CN([C@H]4CCC(=O)NC4=O)C5=O)cc3)CC2)c(F)c1 [CC-92480, reference compound]
- Dmax (HiBiT-tagged SALL4; Table 2; HT-1080 SALL4 HiBiT reporter cells; all compounds tested on the same day): 75.8%
- DC50 (HiBiT-tagged SALL4; read-out: HiBiT SALL4: DC50; Table 2; HT-1080 SALL4 HiBiT reporter cells; all compounds tested on the same day): 3.4 nM
- pIC50 (MM.1S cells): 10.39
- Ymin (MM.1S cells): 7.5 (n = 7) %
- Dmax (HiBiT-tagged IKZF1 [1]; Table 2; HT-1080 IKZF1 HiBiT reporter cells; all compounds tested on the same day): 95.5%
- DC50 (HiBiT-tagged IKZF1 [1]; read-out: HiBiT IKZF1: DC50; Table 2; HT-1080 IKZF1 HiBiT reporter cells; all compounds tested on the same day): 0.105 nM

- Dmax (HiBiT-tagged SALL4; [4]): 58.1%
- DC50 (HiBiT-tagged SALL4; [5]): 32 nM
- F ([2]; Table 4, PO (10 mg/kg) vs IV (2 mg/kg)): 27.1%
- AUC(0-t) ([2]; mouse, IV (2 mg/kg), plasma): 17200 ng·h/mL
- clearance ([2]; mouse, IV (2 mg/kg), plasma): 1.57 mL/min/kg
- half-life ([2]; mouse, IV (2 mg/kg), plasma): 10.2 h
- Vd ([2]; mouse, IV (2 mg/kg), plasma, read-out: Vss): 1.32 L/kg
- AUC(0-t) [2, 6]: 23300 ng·h/mL
- Cmax [2, 6]: 1460 ng/mL
- pIC50 (MM.1S cells): 10.40
- Dmax (HiBiT-tagged IKZF1 [1]; [7]): 91.6%
- DC50 (HiBiT-tagged IKZF1 [1]; [8]): 0.074 nM
SMILES: N#Cc1ccc(N2CCN(Cc3ccc(Cc4ccc5c6c(cc(F)cc46)C(=O)N5C4CCC(=O)NC4=O)cc3)CC2)c(F)c1 (stereo not drawn) [Compound 9]
- Ymin (MM.1S cells): 4.0 (n = 2) %

- Dmax (HiBiT-tagged SALL4; [4]): 59.5%
- Dmax (HiBiT-tagged SALL4; HT-1080, Table 2; HT-1080 SALL4 HiBiT reporter cells; all compounds tested on the same day): 59.4%
- DC50 (HiBiT-tagged SALL4; [5]): 104 nM
- DC50 (HiBiT-tagged SALL4; Table 2; HT-1080 SALL4 HiBiT reporter cells; all compounds tested on the same day; read-out: HiBiT SALL4: DC50): 102 nM
- AUC(0-t) [2, 9]: 73600 ng·h/mL
- Cmax [2, 9]: 4390 ng/mL
- half-life [2, 9]: 8.3 h
- pIC50 (MM.1S cells): 10.66
- Dmax (HiBiT-tagged IKZF1 [1]; [7]): 90.9%
- Dmax (HiBiT-tagged IKZF1 [1]; HT-1080, Table 2; HT-1080 IKZF1 HiBiT reporter cells; all compounds tested on the same day): 93.8%
- DC50 (HiBiT-tagged IKZF1 [1]; [8]): 0.134 nM
- DC50 (HiBiT-tagged IKZF1 [1]; Table 2; HT-1080 IKZF1 HiBiT reporter cells; all compounds tested on the same day; read-out: HiBiT IKZF1: DC50): 0.102 nM
- DC50 (HiBiT-tagged IKZF1 [3]; [10]): ~0.4 nM
- Dmax (HiBiT-tagged IKZF1 [3]; [10]): ~77%
- DC50 (HiBiT-tagged IKZF1 [3]; after 4 hours of incubation): < 0.2 nM
- Dmax (HiBiT-tagged IKZF1 [3]; after 4 hours of incubation): 92%
SMILES: N#Cc1ccc(N2CCN(Cc3ccc(Cc4ccc5c6c(cc(F)cc46)C(=O)N5[C@H]4CCC(=O)NC4=O)cc3)CC2)c(F)c1 (single isomer, unassigned) [Compound 9-B]
- Ymin (MM.1S cells): 5.6 (n = 3) %
